The target in series [1] is T1, DP IV (Homo sapiens, UniProt P27487). The experiment in a line: Ki and inhibition type, DP IV. In kind it is biochemical. The note with it: compounds obtained by preparative synthesis. The method, boiled down:
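Ki by non-linear regression of 7 inhibitor dilutions (range from IC50) against 4 substrate dilutions, in triplicate, using purified human recombinant enzyme under IC50 assay conditions. Inhibition type assigned from the best-fitting equation (competitive, partial competitive, non-competitive); […].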

The test system of series [2] is neuroblastoma cell line SY5Y. The series is described as follows: LD50 determination on SY5Y (LDH). In kind it is cell-based. The note with it: 8 serial dilutions, highest concentration 1 mM. As to the method: After 24 h of cultivation in a 96 well plate (50 000 cells/well) compounds (dissolved in DMSO) are added and cytotoxicity and vitality of the cells are analysed after another 24 h of cultivation using the CytoTox-One Homogenoeous membrane toxicity assay (Promega).
For cytotoxicity the LDH activity in the cell culture media after 24 h of incubation are analysed. The untreated control is set to 0% cytotoxicity. For the 100% value LDH activity of lysed untreated cells are analysed.
For viability cell culture media are removed from the cells and all cells are lysed using the lysis buffer. LDH activity is determined and untreated control is set to 100% viability.
For determination of LD50 the liver carcinoma cell line HEP-G2 and the neuroblastoma cell line SY5Y may be used. The effect of 8 serial dilutions of the compounds (highest concentration 1 mM) is investigated as described above.

The subject of series [3] is Caco-2 monolayer. The experiment in a line: Caco-2 transport assay. In kind it is in vitro ADME, human. Conditions: assessment of permeability and transport type. Here is the method: (§1) The concentration of compounds in the Caco experiments may be determined from their potency to inhibit recombinant human DP IV.
(§2) Reaction is started by addition of 20 μl rhDP IV and release of pNA was monitored at 405 nm. Samples are analyzed in several dilutions (undiluted, 1:10, 1:[…]). Dilutions are done in the Caco assay buffer. Activity measured with Caco-assay buffer alone is set to 100% and inhibitor concentration is calculated from the dilutions resulting in 20 to 80% inhibition according to the equation for competitive inhibition.
(§3) [formula] • I=inhibitor concentration • v0=velocity of the reaction without inhibitor (Caco assay buffer alone) • vi=velocity of the reaction with inhibitor sample • Ki=Ki-value of the compound • DF=dilution factor of the sample Transport Assay
(§4) The human colon adenocarcinome cell line Caco-2 are grown in 6- or 24-transwell microplates (Costar) for 21 days with MEM-alpha containing 10% FBS and 0.5% Gentamycin (Invitrogen). After 21 days of cultivation integrity of the cell layer are assessed by measurement of the transepitelial electrical resistance.
(§5) Transport measurements are carried out in triplicates at a pH of 7.5. For each compound and direction (apical to basal (a-b), basal to apical (b-a)) two separate experiments are done. Samples are collected from the donor and acceptor compartments at the beginning of the experiment and after 60 min (for 6-well plates, Donor at 0 and 120 min, Acceptor at 15, 30, 60 and 120 min).
(§6) Samples are analyzed in several dilutions for their ability to inhibit human recombinant DP IV and compound concentrations may be calculated using the prior determined Ki-value (see above).
(§7) The permeability coefficient Papp is calculated according to the following equation:
(§8) [formula] • VA=Volume of the acceptor compartment • A=Area of the transwell membrane • t=sampling time • cAt=concentration in the acceptor compartment at sampling time • CDO=concentration in the donor compartment at t=0
(§9) Papp-values>1e-5 cm/s are assessed as good permeable, value<1e-6 cm/s as not permeable. Papp-values in between as medium permeable. Compounds where no significant difference were found between a-b and b-a transport are assessed to be passive transported.
(In general: Caco-2 monolayers are a common model of the intestinal barrier.)

Series [4] in a line: Caco-2 transport assay. In kind it is in vitro ADME, human. Conditions: human, Caco-2, pH 7.5; for Papp A→B: apical to basal; for Papp B→A: basal to apical. As to the method:
as §1, §2, §3, §4, §5, §6, §7, §8, §9

In series [5] the test system is liver cell carcinoma cell line Hep-G2. The series is described as follows: Cytotoxicity screening and LD50 determination on Hep-G2 (LDH, CytoTox-One). In kind it is cell-based. The note with it: for Cytotox 100 μM (%) HEPG2 / Viability 100 μM (%) HEP-G2: 24 h; for Cytotox 100 μM (%) HEPG2: LDH activity in cell culture media, lysed untreated cells = 100%; for Viability 100 μM (%) HEP-G2: LDH of lysed cells, untreated control = 100%; for Cytotox 100 μM (%) HEPG2 / Viability 100 μM (%) HEP-G2 / Observed cytotox: 100 μM; for Observed cytotox: Hep-G2, observation of the cells; for LD50 Viability HEP-G2 / LD50 cytotox HEP-G2: 8 serial dilutions, highest concentration 1 mM. An outline of the steps: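 Hep-G2 cells (50 000/well) precultured 24 h, then compound in DMSO (final 1%) added for 24 h. Screen at 100 μM, 2 μM, 40 nM in triplicate. LDH in medium gave cytotoxicity (untreated 0%, lysed 100%); LDH of lysed cells gave viability. LD50 from 8 serial dilutions, top 1 mM.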

For series [6], the target named is T1, DP IV. The series is described as follows: DP IV inhibition IC50, parallel-synthesis compounds tested directly following synthesis (without purification). The format is biochemical. On the set-up: IC50 DP4; other: tested directly following parallel synthesis, without purification; compounds of formula (Ib) from parallel synthesis, tested directly following synthesis. The note with it: DP IV inhibition; compounds of formula (Ib) from parallel synthesis, tested directly following synthesis (without purification); read-out: IC50. The method, boiled down:
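IC50 came from a 4-parameter fit of residual activity (linear 405 nm slopes for pNA release over ~18 min, relative to solvent-only wells). Gly-Pro-pNA was the substrate, cleaved by porcine kidney or recombinant human DP IV at room temperature in HEPES with 5% DMSO; duplicate 1:2 series started at 100 μM final.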

T1 sequence (P27487 whole entry): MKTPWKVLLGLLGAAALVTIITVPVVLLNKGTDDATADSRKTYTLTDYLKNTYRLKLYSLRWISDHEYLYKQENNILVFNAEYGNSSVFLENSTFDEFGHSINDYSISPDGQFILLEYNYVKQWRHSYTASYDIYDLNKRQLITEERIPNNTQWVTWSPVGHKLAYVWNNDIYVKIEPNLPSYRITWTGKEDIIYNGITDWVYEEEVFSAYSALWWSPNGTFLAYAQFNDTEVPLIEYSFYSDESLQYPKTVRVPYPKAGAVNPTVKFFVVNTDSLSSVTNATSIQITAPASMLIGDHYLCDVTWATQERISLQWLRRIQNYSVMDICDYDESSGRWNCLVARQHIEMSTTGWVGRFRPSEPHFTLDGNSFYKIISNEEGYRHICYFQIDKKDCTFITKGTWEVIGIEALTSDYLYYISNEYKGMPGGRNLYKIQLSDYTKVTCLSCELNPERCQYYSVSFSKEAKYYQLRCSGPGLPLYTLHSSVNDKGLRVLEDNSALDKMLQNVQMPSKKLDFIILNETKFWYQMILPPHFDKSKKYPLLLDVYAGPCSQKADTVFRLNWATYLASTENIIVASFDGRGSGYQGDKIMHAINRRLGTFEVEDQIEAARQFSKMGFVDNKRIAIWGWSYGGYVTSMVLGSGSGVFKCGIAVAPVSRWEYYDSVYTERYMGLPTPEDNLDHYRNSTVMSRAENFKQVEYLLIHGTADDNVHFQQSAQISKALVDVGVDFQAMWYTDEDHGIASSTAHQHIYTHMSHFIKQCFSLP

`NCc1c(-c2ccc(Cl)cc2Cl)ncn1Cc1ccccc1` [Example 24b, (1-benzyl-4-(2,4-dichlorophenyl)-1H-imidazol-5-yl)methanamine]: in series [1], the Ki (as a rule, a measure of affinity in units of concentration, obtained from inhibition or displacement) was found to be 4.74 nM. In series [2], the “LD50 Viability SY5Y” value is 0.11 mM and the “LD50 cytotox SY5Y” value was 0.19 mM. The Transport result in series [3] was “good, passive”. In addition, in series [4], the Papp A→B (usually how fast a substance crosses the layer from the apical side) was determined as 37.5 ×10⁻⁶ cm/s and the Papp B→A (commonly the apparent permeability from the basolateral to the apical side of a cell layer) is 41.7 ×10⁻⁶ cm/s. In addition, in series [5], the “Cytotox 100 μM (%) HEPG2” value came out at 5.9%, the “Viability 100 μM (%) HEP-G2” value is reported as 119.2%, the Observed cytotox is listed as 10% spheric and the “LD50 Viability HEP-G2” value amounted to 0.20 mM. Further, the “LD50 cytotox HEP-G2” value in series [5] was 0.18 mM. The IC50 (as a rule, the point on the concentration scale where inhibition reaches its midpoint) in series [6] came out at 900 nM.
As for `NCc1c(-c2ccc(Cl)cc2Cl)ncn1Cc1ccccn1` [Example 39b], affinity in series [1] was put at a Ki of 5.68 nM. Also, in series [2], the “LD50 Viability SY5Y” value was determined as 0.29 mM and the “LD50 cytotox SY5Y” value amounted to 0.60 mM. The Transport entry in series [3] is on record as “good, passive”. In series [4], this molecule displayed a Papp A→B of 40.6 ×10⁻⁶ cm/s and a Papp B→A of 42.5 ×10⁻⁶ cm/s. Also, in series [5], the “Cytotox 100 μM (%) HEPG2” value came out at 3.9%, the “Viability 100 μM (%) HEP-G2” value was 115.7%, the Observed cytotox came out at 20% spheric and the “LD50 Viability HEP-G2” value worked out at 0.80 mM. In series [5], the “LD50 cytotox HEP-G2” value is 0.74 mM. The IC50 in series [6] was found to be 4600 nM.
The molecule `NCc1c(-c2ccc(Cl)cc2Cl)ncn1Cc1cccnc1` [Example 121b, (4-(2,4-dichlorophenyl)-1-((pyridin-3-yl)methyl)-1H-imidazol-5-yl)methanamine] yielded a Ki in series [1] of 2.96 nM. In series [2], the “LD50 Viability SY5Y” value came to 0.46 mM and the “LD50 cytotox SY5Y” value is 0.68 mM. Further, the Transport result in series [3] is “good, passive”. In series [4], this molecule showed a Papp A→B of 36.4 ×10⁻⁶ cm/s and a Papp B→A of 40.4 ×10⁻⁶ cm/s. In addition, in series [5], the “Cytotox 100 μM (%) HEPG2” value is listed as 0%, the “Viability 100 μM (%) HEP-G2” value is 104.0%, the “LD50 Viability HEP-G2” value is 1.05 mM and the “LD50 cytotox HEP-G2” value amounted to 0.92 mM. Also, the IC50 in series [6] was 4600 nM.
`NCc1c(-c2ccc(Cl)cc2Cl)ncn1Cc1ccsc1` [Example 130b, (4-(2,4-dichlorophenyl)-1-((thiophen-3-yl)methyl)-1H-imidazol-5-yl)methanamine]: the Ki in series [1] was determined as 7.69 nM. Besides, in series [2], the “LD50 Viability SY5Y” value turned out to be 0.17 mM and the “LD50 cytotox SY5Y” value is given as 0.28 mM. Also, the Transport entry in series [3] is “good, passive”. Further, in series [4], the Papp A→B worked out at 40 ×10⁻⁶ cm/s and the Papp B→A amounted to 31.2 ×10⁻⁶ cm/s. Also, in series [5], the “LD50 Viability HEP-G2” value is on record as 0.24 mM and the “LD50 cytotox HEP-G2” value worked out at 0.21 mM.

Source of the values: patent US7728146B2, “Enzyme inhibitors” (Probiodrug AG, priority 2006, dated 2010).
